Values quoted from earlier work as cited in PMC8391575, “Identification of Novel Cathepsin B Inhibitors with Implications in Alzheimer’s Disease: Computational Refining and Biochemical Evaluation” (Cells, 2021).
Like-named read-outs stand apart in the source and are kept apart here.

System: cathepsin B
Conditions: cited from earlier work; for pIC50 Experimental: Table 4
[1] = Table S1, read-out: IC50: half maximal inhibitory concentration
[2] = class of the experimental IC50, read-out: Activity Scale Experimental

Row | Compound | pIC50 Experimental | IC50 [1] | IC50 [2]
1 | Cc1ccc(S(=O)(=O)n2nc(OC(=O)c3ccco3)cc2N)cc1 [Compound S12, [5-amino-1-(4-methylphenyl)sulfonylpyrazol-3-yl] furan-2-carboxylate] | 5.76 | 1.75 µM | 0.3 to 2.5 µM
2 | CCn1nc(-c2cccs2)nc2c(=O)n(C)c(=O)nc1-2 [Compound S13, 1-Ethyl-6-methyl-3-thiophen-2-yl-1H-pyrimido[5,4-e][1,2,4]triazine-5,7-dione] | 7.14 | – | < 0.3 µM
3 | COc1ccc(S(=O)(=O)n2nc(OC(=O)c3ccco3)cc2N)cc1 [Compound S15] | 6.03 | – | 0.3 to 2.5 µM
4 | CC(=O)NC(=O)NC1OC(=O)C(Cl)=C1Cl (stereo not shown) [Compound S16, N-[(3,4-dichloro-5-oxo-2H-furan-2-yl)carbamoyl]acetamide] | 5.67 | 2.12 µM | 0.3 to 2.5 µM
5 | COc1ccc(S(=O)(=O)n2nc(OC(=O)c3ccccc3)cc2N)cc1 [Compound S17, [5-amino-1-(4-methoxyphenyl)sulfonylpyrazol-3-yl] benzoate] | 5.02 | – | > 2.5 µM
6 | CCOC(=O)C(C(=O)OCC)N(C#N)c1nc(SC)nc(N(C)C)n1 [Compound S19, diethyl 2-[cyano-[4-(dimethylamino)-6-methylsulfanyl-1,3,5-triazin-2-yl]amino]propanedioate] | 4.71 | – | > 2.5 µM
7 | COc1ccccc1/N=C/c1nc(-c2ccccc2)oc1OC(C)=O [Compound S20, [4-[(2-methoxyphenyl)iminomethyl]-2-phenyl-1,3-oxazol-5-yl] acetate] | 5.05 | – | > 2.5 µM
8 | CCC(=O)Oc1oc(-c2ccccc2)nc1/C=N/c1ccccc1OC [Compound S21, [4-[(2-methoxyphenyl)iminomethyl]-2-phenyl-1,3-oxazol-5-yl] propanoate] | 4.39 | – | > 2.5 µM
9 | O=C(Oc1oc(-c2ccco2)nc1/C=N/c1ccccc1)c1ccco1 [Compound S22, [2-(furan-2-yl)-4-(phenyliminomethyl)-1,3-oxazol-5-yl] furan-2-carboxylate] | 4.41 | – | > 2.5 µM
10 | CCC(C)[C@@H](NC(=O)OC(C)(C)C)c1nnc(S(=O)(=O)Cc2cccc(C)c2)o1 (stereo partly drawn) [Compound S23, tert-butyl N-[(1R)-2-methyl-1-[5-[(3-methylphenyl)methylsulfonyl]-1,3,4-oxadiazol-2-yl]butyl]carbamate] | 5.68 | – | 0.3 to 2.5 µM
11 | COc1nc(N(C#N)CC(N)=O)nc(N2CCCC2)n1 [Compound S24, 2-[cyano-(4-methoxy-6-pyrrolidin-1-yl-1,3,5-triazin-2-yl)amino]acetamide] | 4.85 | – | > 2.5 µM
12 | CC1=C(C)C[S+]([O-])N(S(=O)(=O)c2ccc(Cl)cc2)C1 (stereo not shown) [Compound S25, 2-(4-chlorophenyl)sulfonyl-4,5-dimethyl-3,6-dihydrothiazine 1-oxide] | 5.38 | – | > 2.5 µM
13 | COc1cccc(Cn2c(-c3nonc3N)nc3ccccc32)c1 [Compound S27, 4-[1-[(3-methoxyphenyl)methyl]benzimidazol-2-yl]-1,2,5-oxadiazol-3-amine] | 4.34 | – | > 2.5 µM
14 | CCSc1ccccc1C(=O)n1nnc2ccccc21 [Compound S28, benzotriazol-1-yl-(2-ethylsulfanylphenyl)methanone] | 5.15 | – | > 2.5 µM
15 | N#Cc1c(N2CCCC2)nc(N)c2c(N)nc(N3CCCC3)cc12 [Compound S29, 1,8-diamino-3,6-dipyrrolidin-1-yl-2,7-naphthyridine-4-carbonitrile] | 5.49 | – | > 2.5 µM
16 | Cn1c(=O)c2c(-c3ccccc3)n(-n3cnnc3)cc2n(C)c1=O [Compound S30, 1,3-dimethyl-5-phenyl-6-(1,2,4-triazol-4-yl)pyrrolo[3,4-d]pyrimidine-2,4-dione] | 5.93 | – | 0.3 to 2.5 µM
